Where “and” joins values, the source holds several entries; their conditions need not be identical. Equal entries are not always repeated.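 How tested: cells in 96-well plates exposed to compound for 48 hours at five concentrations. The concentration for 50% growth inhibition is given as GI50. TGI is the concentration that stops growth completely.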 *1 amine or outer side, *2 acyl side, *3 side chain or, on linkers, in order; H or OH if unused. Where a SMILES comes first, the peptide text is derived from it. Bridges are numbered along the chain shown (N, C = ends). [ ]: non-standard residue; d: D form. The star is where a group is joined. ξ: configuration not given here. Phe(3,5-F2) = N[C@@H](Cc1cc(F)cc(F)c1)C(=O)O; ξThr(3S) = C[C@H](O[*:3])C(N[*:1])C(=O)[*:2]; Pro(4R-Me) = C[C@H]1CN[C@H](C(=O)O)C1; Pip = O=C(O)[C@@H]1CCCCN1; X1 = Cc1ccc(N*)c(F)c1; CO = O=C([*:1])[*:2]
Tested on: MDA-MB-468 breast
Assay: NCI anticancer screen, dose series, 48 h

| SMILES | GI50 | TGI |
| --- | --- | --- |
| Clc1ccc2c(NC3CCC(NC4CCCCC4)CC3)ccnc2c1 (configuration not stated) | 1680 nM | 8.1 µM |
| COc1ccc(C2c3cc4c(cc3OC(N3CCOCC3)C2C)OCO4)cc1OC (configuration not stated) | 7560 nM | > 100 µM |
| Cc1cc(NC(=O)NCCCOc2ccc(N3C(N)=NC(N)=NC3(C)C)cc2Cl)ccc1S(=O)(=O)F | 638 nM | 19.7 µM |
| COCCn1c(Nc2ccc(C(=O)NO)cc2)nc2ccccc21 | 3430 nM | 16 µM |
| CN1CCN(CCCOC(=O)c2c3c(n4ccccc24)C(=O)c2ncccc2C3=O)CC1 | 1880 nM | 20.6 µM |
| CCCCCCCCCCCC(c1ccccc1)[N+](C)(C)C (configuration not stated) | 257 nM | 1.35 µM |
| Cc1ccc(NC(=O)N[C@@H](Cc2cc(F)cc(F)c2)C(=O)NC2C(=O)N3CCC[C@H]3C(=O)N3CCCC[C@H]3C(=O)N[C@@H](C)C(=O)N3C[C@H](C)C[C@H]3C(=O)O[C@H]2C)c(F)c1 (stereo partly drawn) ({X1-CO}-[Phe(3,5-F2)][ξThr(3S)]P[Pip]A[Pro(4R-Me)]; ester 2-C) | 174 nM and 87.4 nM |  |
| CCCCCCCCCCCC1=NC(C)(C)CN1C(C)C | 1660 nM | 3.8 µM |
| C#C[C@]1(O)CC[C@H]2[C@@H]3CC=C4c5sc(Nc6cc(C)cc(C)c6)nc5CC[C@]4(C)[C@H]3CC[C@@]21C | 2540 nM | 8.69 µM |
| COc1cc(-c2csc(NC(=O)Nc3ccc(Cl)cc3)n2)cc(OC)c1OC | 2960 nM | 9.35 µM |
| C=CC(=O)N1CCN([C@@H](CC2CC2)c2ccc([C@H](C)Nc3ncc4c(n3)N(CC)C(=O)OC4)cc2)CC1 | 3300 nM | 13.8 µM |
| CCCN1CCC(Oc2cc(Nc3nc(Nc4cccc(F)c4C(N)=O)c4cc[nH]c4n3)c(OC)cc2Cl)CC1 | 537 nM | 1.35 µM |
| Cc1ccc(/C=C/C(=O)c2ccc(F)cc2)s1 | 2970 nM | 16.4 µM |
| CC(C)Cn1cnc2c(N)nc3ccccc3c21 | 12400 nM | > 62.1 µM |
| COc1ccc(-c2nc(-c3nc4cc(Cl)c(Cl)cc4[nH]3)c3ccccn23)cc1 | 5040 nM | > 100 µM |
| Cc1ccc(-c2nnc(SCc3ccc(O)c4ncccc34)o2)cc1 | 1880 nM | > 100 µM |
| CCN(Cc1ccccc1)c1ccc(/C=C2\COc3ccccc3C2=O)cc1 | 438000 nM | > 1000 µM |
| CC(=O)Nc1ccc(CC[C@H]2CCC/C=C/[C@@H]3C[C@H](O)C[C@H]3[C@H](O)/C=C/C(=O)O2)cc1 | 21.3 nM | 0.0503 µM |
| Clc1cccc(-c2cc(-c3ccc4c(c3)OCCO4)[nH]n2)c1 | 10900 nM | 57.8 µM |
| CN1CCN(c2ccc3nc(-c4[nH]ncc4Nc4ncnc5[nH]ccc45)[nH]c3c2)CC1 | 197 nM | 0.487 µM |

| SMILES | GI50 | TGI |
| --- | --- | --- |
| C=CCn1c(SCC(=O)Nc2ccc(C(=O)/C=C/c3cc(OC)c(OC)c(OC)c3)cc2)nnc1-c1cc(OC)c(OC)c(OC)c1 | 2450 nM | 6.66 µM |
| COc1ccc(-c2nn3ncccc3c2-c2ccnc(Nc3ccc(F)c(F)c3)n2)cc1 | 6000 nM | > 18.9 µM |
| Clc1ccc2c(NCCCCNc3nc(N4CCOCC4)nc4ccccc34)ccnc2c1 | 2820 nM | 7.97 µM |
| COc1cccc2c1C(=O)c1c(O)c3c(c(O)c1C2=O)C[C@@](O)(C(=O)CO)C[C@@H]3OC1CC(N2CCOCC2)C(O)C(C)O1 (some centres not stated) | 36.9 nM | 0.216 µM |
| Nc1nc(N)c2cc(S(=O)(=O)c3cccc(C(F)(F)F)c3)ccc2n1 | 2340 nM | > 100 µM |
| O=C(Nc1ccccc1/C=C/c1n[nH]c2ccccc12)c1ccccc1 | 6350 nM | 20.4 µM |
| CN(C)CCN1C(=O)c2cccc3cc(N)cc(c23)C1=O | 2950 nM | 11.9 µM |
| O=C(O)CN(CCN(CC(=O)O)CC(=O)O)CCN(CC(=O)O)CC(=O)O | 4030 nM | 16.4 µM |
| CCn1c(-c2nonc2N)nc2cnc(Oc3cccc(NC(=O)c4ccc(OCCN5CCOCC5)cc4)c3)cc21 | 1130 nM | 19.9 µM |
| CCCCCOC(=O)c1c(C)[nH]c(/C=C2\N=C(c3ccc[nH]3)C=C2OC)c1C | 54.6 nM | 1.32 µM |
| N#CSc1c[nH]c2ccc(/C=C/C(=O)/C=C(O)/C=C/c3ccc4[nH]cc(SC#N)c4c3)cc12 | 2060 nM | 6.67 µM |
| Cc1[nH]nc2ncc(C#Cc3cncc(C(=O)Nc4ccc(CN5CCN(C)CC5)c(C(F)(F)F)c4)c3)cc12 | 141 nM | 0.911 µM |
| C=C(C)[C@@H]1CC[C@]2(C(=O)OC)CC[C@]3(C)[C@H](CC[C@@H]4[C@@](C)(CCc5nn[nH]n5)[C@H](C(=C)C)CC[C@]43C)[C@@H]12 | 13800 nM | 36.4 µM |
| c1ccc2[nH]c(-c3ccc(Nc4nc(N5CCCC5)nc5[nH]ncc45)cc3)nc2c1 | 277 nM | 1.21 µM |
| Cc1ccc(NC(=O)c2ccoc2)cc1-c1ccc(C(=O)NCC2CC2)cc1 | 6370 nM | > 25 µM |
| CCOc1ccc2nc3cc(N)ccc3c(N)c2c1 | 268 nM and 135 nM | 0.972 µM and 0.493 µM |
| CN1CCC2(CC1)C(=O)Nc1cc(NC(=O)c3ccc4c(c3)C[C@@H]3C(C)(C)[C@H](O)[C@H](F)C[C@@]3(C)O4)ccc12 | 740 nM | 11.7 µM |
| CN1CCN(c2cc(F)c(NC3=C(Cl)C(=O)c4ncccc4C3=O)c(F)c2)CC1 | 1010 nM | 2.61 µM |
| CC[C@@H]1C(=O)N(C)c2cnc(Nc3ccc(C(=O)NC4CCC(N5CCN(CC6CC6)CC5)CC4)cc3OC)nc2N1C(C)C (some centres not stated) | 3.31 nM and < 10 nM | 0.121 µM |
